Where two headings read alike, the source gives them in different places.
Key:
Format in all cases: biochemical
human stromelysin (Sln) = human stromelysin (Sln) (Homo sapiens, UniProt P08254); experiment: In vitro MMP inhibition assay (hydrolysis of fluorogenic MCA peptide substrate), stromelysin
Protocol: The catalytic domain of human stromelysin (Sln) was obtained by expression and purification of a C-terminally truncated prostromelysin-1 from E. coli host BL21 (see Marcy et al. Biochem., 1991, 30, 6476). The subsequent activation of the mature form (Sln) was completed with 2 mM APMA for 1 hour at 37° C., followed by separation using a sizing column.
(§1) Assays were performed in assay buffer (50 mM Tricine pH 7.5, 200 mM sodium chloride, 10 mM calcium chloride, 0.5 mM zinc acetate containing 2% dimethyl sulfoxide (DMSO)) once the substrate and inhibitor were diluted into it. Stock solutions of inhibitors were prepared in 100% DMSO. Stock solutions of the substrate were prepared in 100% DMSO at a concentration of 6 mM.
(§2) The assay method was based on the hydrolysis of MCA-Pro-Leu-Gly-Leu-DPA-Ala-Arg-NH2 (American Peptide Co.) at 37° C. (see Knight, C. G. et al., FEBS, 1992, 296, 263-266). The fluorescence changes were monitored with a Perkin-Elmer LS-50B fluorimeter using an excitation wavelength of 328 nm and an emission wavelength of 393 nm. The substrate concentration used in the assays was 10 μM. The inhibitor was diluted into the assays from a solution in 100% DMSO, and controls substituted an equal volume of DMSO so that the final DMSO concentration from inhibitor and substrate dilution in all assays was 2%. […] Proper determination of steady-state rates of substrate cleavage required assay lengths of 60 minutes to allow for complete equilibration of the enzyme-inhibitor complex.
(§3) The Km for the MCA peptide substrate with the matrix metalloproteinases is quite high and exceeds its solubility under assay conditions. Consequently, the apparent Ki (Ki,app) was determined to describe the strength of inhibition. However, in this case, Ki,app would be essentially equal to Ki since [S]<<Km. For the determination of Ki,app, the concentration of the inhibitor was varied at a constant and low concentration of substrate and the steady-state rates of fluorescence change determined. In most cases absorptive quench due to the presence of ligand was not observed. For slow-binding inhibitors, onset of inhibition curves were collected for at least 45 minutes so that equilibrium was established. Steady-state rates of fluorescence change were obtained by fitting a curve to an equation for a single exponential decay containing a linear phase. The fitted value of the linear phase was taken as the steady-state rate. The steady-state rates were fitted to the Michaelis equation describing competitive inhibition by non-linear methods. Data resulting from tight-binding inhibition was analyzed, and Ki,app determined by fitting the data to the tight-binding equation of Morrison (Biochem. Biophys. Acta, vol. 185, pp. 269-286 (1969)) by non-linear methods.
(§4) All Ki values are in nM units.

[1] = target: human progelatinase A (GelA) (Homo sapiens, UniProt P08253); experiment: In vitro MMP inhibition assay (hydrolysis of fluorogenic MCA peptide substrate), gelatinase A
Protocol: The catalytic and fibronectin-like portion of human progelatinase A (GelA) was expressed as a fusion protein with ubiquitin in E. Coli. Assays were carried out on autocatalytically activated material.
as §1, §2, §3, §4

[2] = target: T1, human collagenase-3 (Coll3) (Homo sapiens, UniProt P45452); experiment: In vitro MMP inhibition assay (hydrolysis of fluorogenic MCA peptide substrate), collagenase-3; conditions: Table 1; Ki,app; MCA peptide substrate 10 μM, 37° C., pH 7.5, 2% DMSO
T1 construct: catalytic domain liberated with APMA
Protocol: The propeptide and catalytic domain of human collagenase-3 (Coll3) was expressed in E. coli as an N-terminal fusion protein with ubiquitin. After purification of the fusion from inclusion bodies, the catalytic domain was liberated by treatment with 2 mM APMA at room temperature overnight. Final purification was completed using copper chelate chromatography.
as §1, §2, §3, §4

[3] = Table 1, Ki,app, MCA peptide substrate 10 μM, 37° C., pH 7.5, 2% DMSO, read-out: Sin Ki
[4] = Table 1, Ki,app, MCA peptide substrate 10 μM, 37° C., pH 7.5, 2% DMSO, read-out: Gel A

Sequence of human progelatinase A (GelA) (P08253 110-446 limits assumed): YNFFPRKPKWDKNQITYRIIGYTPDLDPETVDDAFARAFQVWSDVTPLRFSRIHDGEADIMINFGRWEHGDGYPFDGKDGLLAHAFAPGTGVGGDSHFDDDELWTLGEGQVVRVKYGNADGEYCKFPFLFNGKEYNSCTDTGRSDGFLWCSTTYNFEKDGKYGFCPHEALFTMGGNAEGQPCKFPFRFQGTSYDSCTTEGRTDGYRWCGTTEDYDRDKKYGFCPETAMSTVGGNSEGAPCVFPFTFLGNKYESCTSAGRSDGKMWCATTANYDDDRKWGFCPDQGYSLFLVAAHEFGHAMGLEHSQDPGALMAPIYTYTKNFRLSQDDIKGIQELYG
Sequence of human stromelysin (Sln) (P08254 100-272 limits assumed): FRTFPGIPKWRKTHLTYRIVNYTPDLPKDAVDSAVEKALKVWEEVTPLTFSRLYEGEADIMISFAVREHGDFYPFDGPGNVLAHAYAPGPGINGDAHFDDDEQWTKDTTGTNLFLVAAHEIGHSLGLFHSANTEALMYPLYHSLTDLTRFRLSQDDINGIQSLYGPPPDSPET

Ki (human stromelysin (Sln); Table 2, comparative example, read-out: STROMELYSIN Ki)	Ki ([1]; Table 2, comparative example, gelatinase A, read-out: GELATINASE Kj)	Ki (human stromelysin (Sln); [3])	Ki [2]	Ki [1, 4]	SMILES
–	–	2600 nM	209 nM	4.2 nM	Cc1cc(CSC(C)(C)[C@@H](NS(=O)(=O)c2ccc(Oc3ccc(Br)cc3)cc2)C(=O)O)no1 [Example 3k, N-[4-(4-Bromophenoxy)benzenesulfonyl]--S--[(5-methylisoxazol-3-yl)-methyl]-D-penicillamine]
–	–	5100 nM	248 nM	35.3 nM	Cc1cc(CSC(C)(C)[C@@H](NS(=O)(=O)c2ccc(Oc3ccc(F)cc3)cc2)C(=O)O)no1 [Example 3l, N-[4-(4-Fluorophenoxy)benzenesulfonyl]--S--[(5-methylisoxazol-3-yl)methyl]-D-penicillamine]
–	–	2150 nM	–	34 nM	Cn1ccnc1CSC(C)(C)[C@@H](NS(=O)(=O)c1ccc(Oc2ccc(Br)cc2)cc1)C(=O)O [Example 3o]
–	–	348000 nM	–	900 nM	CC(C)(O)[C@@H](NS(=O)(=O)c1ccc(Oc2ccc(Br)cc2)cc1)C(=O)O [Example 3s, N-[4-(4-Bromophenoxy)benzenesulfonyl]-D--(β-hydroxy)valine]
–	–	10500 nM	–	165 nM	COC(=O)CCSC(C)(C)[C@@H](NS(=O)(=O)c1ccc(Oc2ccc(F)cc2)cc1)C(=O)O [Example 7, S--[2-(Methoxycarbonyl)ethyl]--N--[4-(4-fluorophenoxy)benzenesulfonyl]-D-penicillamine]
–	–	12500 nM	–	373 nM	CC(C)(SCCO)[C@@H](NS(=O)(=O)c1ccc(Oc2ccc(F)cc2)cc1)C(=O)O [Example 8a, S--[2-Hydroxyethyl]--N--[4-(4-fluorophenoxy)benzenesulfonyl]-D-penicillamine]
–	–	5700 nM	–	334 nM	CC(C)(SCCC(N)=O)[C@@H](NS(=O)(=O)c1ccc(Oc2ccc(F)cc2)cc1)C(=O)O [Example 8b, S--[2-(Aminocarbonyl)ethyl]--N--[4-(4-fluorophenoxy)benzenesulfonyl]-D-penicillamine]
–	–	0.24 nM	0.013 nM	–	Cc1cc(CSC(C)(C)[C@@H](NS(=O)(=O)c2ccc(Oc3ccc(Br)cc3)cc2)C(=O)NO)no1 [Example 9d, 2(S)--N-hydroxy-3-methyl-3-(5-methylisoxazol-3-yl)methylsulfanyl-2-[(4-(4-bromophenoxy)benzenesulfonyl)amino]butanamide]
–	–	0.2 nM	–	0.11 nM	Cn1ccnc1CSC(C)(C)[C@@H](NS(=O)(=O)c1ccc(Oc2ccc(Br)cc2)cc1)C(=O)NO [Example 9n, 2(S)--N-hydroxy-3-methyl-3-(1-methyl-1H-imidazol-2-yl)-methylsulfanyl-2-[(4-(4-bromophenoxy)benzenesulfonyl)amino]butanamide]

Second part, the compound before the results:

SMILES	Ki (human stromelysin (Sln); Table 2, comparative example, read-out: STROMELYSIN Ki)	Ki ([1]; Table 2, comparative example, gelatinase A, read-out: GELATINASE Kj)	Ki (human stromelysin (Sln); [3])	Ki [2]	Ki [1, 4]
Cc1ccc(S(=O)(=O)NCC(=O)NO)cc1 [Compound 13, N-hydroxy-2-(toluene-4-sulfonylamino)acetamide, reference compound]	3400 nM	3500 nM	–	–	–
CC(C)(SCc1nccn1Cc1ccccc1)[C@@H](NS(=O)(=O)c1ccc(Oc2ccc(F)cc2)cc1)C(=O)O [Example 3a, S--[(1-Benzyl-1H-imidazol-2-yl)methyl]--N--[4-(4-fluorophenoxy)benzenesulfonyl]-D-penicillamine]	–	–	1300 nM	200 nM	11 nM
CC(C)(SCc1nccn1Cc1ccccc1)[C@@H](NS(=O)(=O)c1ccc(Oc2ccc(Br)cc2)cc1)C(=O)O [Example 3b, N-[4-(4-Bromophenoxy)benzenesulfonyl]--S--[(1-benzyl-1H-imidazol-2-yl)methyl]-D-penicillamine]	–	–	558 nM	108 nM	1.8 nM
CC(C)(SCc1ccccn1)[C@@H](NS(=O)(=O)c1ccc(Oc2ccc(F)cc2)cc1)C(=O)O [Example 3c, N-[4-(4-Fluorophenoxy)benzenesulfonyl]--S--[(pyrid-2-yl)methyl]-D-penicillamine]	–	–	2550 nM	110 nM	44 nM
CC(C)(SCc1cccnc1)[C@@H](NS(=O)(=O)c1ccc(Oc2ccc(F)cc2)cc1)C(=O)O [Example 3e, N-[4-(4-Fluorophenoxy)benzenesulfonyl]--S--[(pyrid-3-yl)methyl]-D-penicillamine]	–	–	6900 nM	1100 nM	517 nM
CC(C)(SCc1ccncc1)[C@@H](NS(=O)(=O)c1ccc(Oc2ccc(F)cc2)cc1)C(=O)O [Example 3f, N-[4-(4-Fluorophenoxy)benzenesulfonyl]--S--[(pyrid-4-yl)methyl]-D-penicillamine]	–	–	6300 nM	829 nM	311 nM
Cc1ccc(Oc2ccc(S(=O)(=O)N[C@@H](C(=O)O)C(C)(C)SCc3ccccn3)cc2)cc1 [Example 3g, N-[4-(4-Methylphenoxy)benzenesulfonyl]--S--[(pyrid-2-yl)methyl]-D-penicillamine]	–	–	1310 nM	117 nM	10 nM
CC(C)(SCc1ccccn1)[C@@H](NS(=O)(=O)c1ccc(Oc2ccc(C#N)cc2)cc1)C(=O)O [Example 3h, N-[4-(4-Cyanophenoxy)benzenesulfonyl]--S--[(pyrid-2-yl)methyl]-D-penicillamine]	–	–	8200 nM	258 nM	73 nM
CC(C)(SCc1ccccn1)[C@@H](NS(=O)(=O)c1ccc(Oc2ccc(I)cc2)cc1)C(=O)O [Example 3i, N-[4-(4-Iodophenoxy)benzenesulfonyl]--S--[(pyrid-2-yl)methyl]-D-penicillamine]	–	–	1180 nM	196 nM	3.3 nM
CC(C)(SCc1ccccn1)[C@@H](NS(=O)(=O)c1ccc(Oc2ccc(C(F)(F)F)cc2)cc1)C(=O)O [Example 3j, N-[4-(4-(trifluoromethyl)phenoxy)benzenesulfonyl]--S--[(pyrid-2-yl)methyl]-D-penicillamine]	–	–	2950 nM	–	48 nM
CC(C)(SCc1ccccc1)[C@@H](NS(=O)(=O)c1ccc(Oc2ccccc2)cc1)C(=O)O [Example 3m, S-Benzyl--N--[4-phenoxybenzenesulfonyl]-D-penicillamine]	–	–	1000 nM	907 nM	46 nM
Cc1cc(CSC(C)(C)[C@@H](NS(=O)(=O)c2ccc(Oc3ccncc3)cc2)C(=O)O)no1 [Example 4b, S--[(5-Methylisoxazol-3-yl)methyl]--N--[4(pyrid-4-yl)oxybenzenesulfonyl]-D-penicillamine]	–	–	751 nM	–	27 nM
Cc1cc(CSC(C)(C)[C@@H](NS(=O)(=O)c2ccc(Oc3ccc(F)cc3)cc2)C(=O)NO)no1 [Example 9c, 2(S)--N-hydroxy-3-methyl-3-(5-methylisoxazol-3-yl)methylsulfanyl-2-[(4-(4-fluorophenoxy)benzenesulfonyl)amino]butanamide]	–	–	0.63 nM	–	0.024 nM
CC(C)(SCc1ccccn1)[C@@H](NS(=O)(=O)c1ccc(Oc2ccc(I)cc2)cc1)C(=O)NO [Example 9f, 2(S)--N-hydroxy-3-methyl-3-(pyrid-2-yl)methylsulfanyl-2-[(4-(4-iodophenoxy)benzenesulfonyl)amino]butanamide]	–	–	0.29 nM	0.015 nM	–
Cc1ccc(Oc2ccc(S(=O)(=O)N[C@@H](C(=O)NO)C(C)(C)SCc3ccccn3)cc2)cc1 [Example 9g, 2(S)--N-hydroxy-3-methyl-3-(pyrid-2-yl)methylsulfanyl-2-[(4-(4-methylphenoxy)benzenesulfonyl)amino]butanamide]	–	–	0.73 nM	–	0.036 nM
Cc1cc(CSC(C)(C)[C@@H](NS(=O)(=O)c2ccc(Oc3ccncc3)cc2)C(=O)NO)no1 [Example 10a, 2(S)--N-hydroxy-3-methyl-3-(5-methylisoxazol-3-yl)methylsulfanyl-2-[(4-(pyrid-4-yloxy)benzenesulfonyl)amino]butanamide]	–	–	11.4 nM	–	0.32 nM

— patent US5985900A, “Metalloproteinase inhibitors, pharmaceutical compositions containing them and their pharmaceutical uses” (Agouron Pharmaceuticals, Inc., priority 1998, dated 1999)
